Reference: patent US20240018466A1, “METHOD FOR INDUCING SALMONELLA ENTERITIDIS INTO VBNC STATE BY SODIUM HYPOCHLORITE” (Zhejiang Academy of Agricultural Sciences, priority 2022, published 2024)

Assays:
[1] = test system: S. Enteritidis CVCC 1806; experiment: Counts of live cells by Live and Dead BacLight SYTO9/PI staining and flow cytometry after NaClO stress treatment; type: cell-based, Salmonella enteritidis
Method: the NaClO stock solution of NaClO disinfectant solution containing 56.8 mg/mL chlorine was diluted to 100 mg/L with sterilized sterile water for later use, and 0.5 ml of bacterial suspension (10^9 CFU/mL) and 100 mg/L NaClO solution were taken respectively into a sterile EP tube. The products in the sterile EP tube were vortex-mixed, and the stress concentration in the final system was 50 mg/L.
The mixed reagent was placed at room temperature, and systems were obtained for processing every 0.5 h within a stress treatment for up to 3 h, and 100 μL 1.5% Na2S2O3 was added to terminate the reaction.
Counts of live cells: the concentration of bacterial suspension was adjusted to 10^7-10^9 CFU/mL, and live, dead and injured bacteria were distinguished using commercial Live and Dead BacLight test kits (Molecular Probes, Carlsbad, CA, USA). […]

[2] = test system: S. Enteritidis CVCC 1806; experiment: Counts of culturable cells by plate counting method after NaClO stress treatment; type: cell-based, Salmonella enteritidis; conditions: after 2.5 h of treatment with 50 mg/L NaClO solution, room temperature; FIG. 1

Question: Which results are given for `OCl` [NaClO, sodium hypochlorite]?
Answer: total content of live cells and bacteria in the sub-lethal injury state in the system ([1]; after 2.5 h of treatment with 50 mg/L NaClO solution, flow cytometry): 60.03%; induction of VBNC state ([1]; after 2.5 h of treatment with 50 mg/L NaClO, live minus culturable cells at maximum): enter the VBNC state; number of culturable cells [2]: 0 CFU/ml
